Here are results for two molecules from US20220023773A1, “COMPOSITIONS COMPRISING 2-[(1R,6R)-6-ISOPROPENYL-3-METHYLCYCLOHEX-2-EN-1-YL]-3-HYDROXY-5-PENTYLPHENOLATE” (Natural Extraction Systems, LLC, priority 2018, published 2022).

Some results are limits rather than exact numbers.

Assay type in all cases: physicochemical
Data set [1] is described as follows: pH stability of the phenolate in water (color change purple to yellow-brown). As for the experimental part: 1 gram of 1R,6R CBD was dissolved in 6.6 milliliters of 0.5 molar potassium hydroxide (0.5 M KOH) in ethanol to produce 2-[(1R,6R)-6-isopropenyl-3-methylcyclohex-2-en-1-yl]-3-hydroxy-5-pentylphenolate. The solution was then diluted with 100 millimolar sodium carbonate (100 mM Na2CO3) in water to a final volume of 50 milliliters and a 2-[(1R,6R)-6-isopropenyl-3-methylcyclohex-2-en-1-yl]-3-hydroxy-5- pentylphenolate concentration of approximately 20 grams per liter. 0.5 milliliters of the 2-[(1R,6R)-6-isopropenyl-3-methylcyclohex-2-en-1-yl]-3-hydroxy-5-pentylphenolate solution was added to each of 25 test tubes containing 9.5 milliliters of 0.1 molar carbonate/bicarbonate (CO3^2−/HCO3^−) buffer according to Table 1. Each test tube contained approximately 10 milligrams of 2-[(1R,6R)-6-isopropenyl-3-methylcyclohex-2-en-1-yl]-3-hydroxy-5-pentylphenolate at a concentration of approximately 1 gram per liter, approximately 0.66% ethanol by weight, trace potassium ion, and variable sodium ion, carbonate ion, and bicarbonate ion. pH's were confirmed by multiple different measurements. […]

Data set [2] in a line: Commercial viability of beverages comprising the phenolate (appearance in bottled water). As for the experimental part: 20 milliliters of water was removed from a 1 liter bottle of ESSENTIA® OVERACHIEVING H2O®. ESSENTIA® OVERACHIEVING H2O® contains purified water, sodium bicarbonate, dipotassium phosphate, magnesium sulfate, and calcium chloride, and its pH was determined to be about 9.5. The 20 milliliters of removed water was replaced with 20 milliliters of the 20 gram-per-liter solution of 2-[(1R,6R)-6-isopropenyl-3-methylcyclohex-2-en-1-yl]-3-hydroxy-5-pentylphenolate, which is described in Example 1, and the bottle was hermetically sealed using the screw cap top of the bottle to produce a hermetically-sealed container comprising approximately 400 milligrams of 2-[(1R,6R)-6-isopropenyl-3-methylcyclohex-2-en-1-yl]-3-hydroxy-5-pentylphenolate. The pH of the liquid was measured and determined to be about 10. […] 5 milliliters of water was removed from a 500 milliliter bottle of DASANI® purified water.
DANSANI® purified water contains purified water, magnesium sulfate, potassium chloride, and sodium chloride, and its pH was determined to be about 7.0. The 5 milliliters of removed water was replaced with 5 milliliters of the 20 gram-per-liter solution of 2-[(1R,6R)-6-isopropenyl-3-methylcyclohex-2-en-1-yl]-3-hydroxy-5-pentylphenolate, which is described in Example 1, and the bottle was hermetically sealed using the screw cap top of the bottle to produce a hermetically-sealed container comprising approximately 100 milligrams of 2-[(1R,6R)-6-isopropenyl-3-methylcyclohex-2-en-1-yl]-3-hydroxy-5-pentylphenolate. The pH of the liquid was measured and determined to be about 9.5.
0.5 milliliters of water was removed from a 500 milliliter bottle of DASANI® purified water. DANSANI® purified water contains purified water, magnesium sulfate, potassium chloride, and sodium chloride, and its pH was determined to be about 7.0. […] The pH of the liquid was measured and determined to be about 8.5.

A short description of data set [3]: Determining the approximate pKa of 1R,6R CBD by color at varying sodium bicarbonate concentration. As to conditions: distilled water with sodium bicarbonate, under the test conditions, from color change. How it is done:
Example 2. Determining the approximate pKa of IR, 6R CBD 0.5 milliliters of the 20 gram-per-liter solution of 2-[(1R,6R)-6-isopropenyl-3-methylcyclohex-2-en-1-yl]-3-hydroxy-5-pentylphenolate described in Example 1 was diluted with 9.5 milliliters of distilled water comprising varying concentrations of sodium bicarbonate, and color was monitored as shown in Table 2. pH's were confirmed by multiple different measurements.

As to `C=C(C)[C@@H]1CCC(C)=C[C@H]1c1c(O)cc(CCCCC)cc1O` [2-[(1R,6R)-6-isopropenyl-3-methylcyclohex-2-en-1-yl]-3-hydroxy-5-pentylphenolate], in data set [1] (pH's of 9.1 and above, approximately 1 gram per liter in 0.1 molar carbonate/bicarbonate buffer, approximately 0.66% ethanol), the “color change from purple (phenolate) to yellow-brown (1R,6R CBD)” value is on record as “No color change”. The “appearance of the liquid” value was “transparent and lacked discernable color” in data set [2] (approximately 10 milligrams in 500 milliliter bottle of DASANI purified water, pH about 8.5); “transparent and purple” in data set [2] (approximately 100 milligrams in 500 milliliter bottle of DASANI purified water, pH about 9.5); “purple and transparent” in data set [2] (approximately 400 milligrams in 1 liter bottle of ESSENTIA OVERACHIEVING H2O, pH about 10).
As usually defined, the pKa is the pH at which an ionisable group is half protonated. A high value points to a group that holds its proton tightly. Regarding `C=C(C)[C@@H]1CCC(C)=C[C@H]1c1c(O)cc(CCCCC)cc1O` [1R,6R CBD, 2-[(1R,6R)-6-isopropenyl-3-methylcyclohex-2-en-1-yl]-5-pentylbenzene-1,3-diol, reference compound], the pKa in data set [1] (suggested from absence of color change, at least in dilute aqueous solutions (alternative: kinetic trapping)) was less than 9.1; in data set [3], 8 to 8.5.
